One series deals with SMMC-7721. The series is described as follows: Antiproliferative activity against human SMMC-7721 cells assessed as inhibition of cell proliferation incubated for 72 hrs by MTT assay. It counts as functional, cell-based. To be noted: SMMC-7721, 72 h. (In general: Tetrazolium assays rely on reduction of a dye to a coloured formazan, in cell work by metabolically active cells.)

Series [1] in a line: Antiproliferative activity against human Doxorubicin-resistant SMMC-7721 cell assessed as inhibition of cell proliferation incubated for 72 hrs by MTT assay. It counts as functional, cell-based. Conditions: SMMC-7721, 72 h.
Series [2] is described as follows: Drug resistance index, ratio of IC50 for antiproliferative activity against human SMMC-7721 cells to antiproliferative activity against human Doxorubicin-resistant SMMC-7721 cells. It counts as functional.
Series [3] deals with SK-HEP1. The series is described as follows: Induction of cell cycle arrest in human SK-HEP1 cells assessed as accumulation of cells at G2 phase 80 nM measured after 24 hrs by flow cytometric assay (reference value: 22.41%). The format is functional. In general terms: In flow cytometry, cells or beads pass a laser one at a time.
The test system of series [4] is SK-HEP1. Briefly: Induction of apoptosis in human SK-HEP1 cells assessed as necrotic cells at 80 nM measured after 24 hrs by Annexin-V-FITC/PI analysis (reference value: 0.70%). It counts as functional.
The test system of series [5] is Huh-7. The series is described as follows: Induction of apoptosis in human Huh-7 cells assessed as late apoptotic cells at 80 nM measured after 24 hrs by Annexin-V-FITC/PI analysis (reference value: 1.23%). It counts as functional.
Series [6] has as its system Huh-7. Briefly: Induction of apoptosis in human Huh-7 cells assessed as viable cells at 80 nM measured after 24 hrs by Annexin-V-FITC/PI analysis (reference value: 97.46%). The format is functional. Conditions: read-out: Activity.
For series [7], the system named is SK-HEP1. The series is described as follows: Induction of apoptosis in human SK-HEP1 cells assessed as early apoptotic cells at 80 nM measured after 24 hrs by Annexin-V-FITC/PI analysis (reference value: 1.45%). It counts as functional.
The subject of series [8] is Huh-7. The series is described as follows: Induction of cell cycle arrest in human Huh-7 cells assessed as accumulation of cells at G1 phase 80 nM measured after 24 hrs by flow cytometric assay (reference value: 63.01%). It counts as functional.
For series [9], the system named is SK-HEP1. Briefly: Induction of cell cycle arrest in human SK-HEP1 cells assessed as accumulation of cells at G1 phase 80 nM measured after 24 hrs by flow cytometric assay (reference value: 47.55%). The format is functional.
Series [10] deals with SK-HEP1. Briefly: Induction of apoptosis in human SK-HEP1 cells assessed as viable cells at 80 nM measured after 24 hrs by Annexin-V-FITC/PI analysis (reference value: 97.20%). The format is functional. To be noted: read-out: Activity.
The subject of series [11] is SK-HEP1. The series is described as follows: Induction of cell cycle arrest in human SK-HEP1 cells assessed as accumulation of cells at S phase 80 nM measured after 24 hrs by flow cytometric assay (reference value: 30.04%). It counts as functional.
The subject of series [12] is Huh-7. Briefly: Induction of apoptosis in human Huh-7 cells assessed as necrotic cells at 80 nM measured after 24 hrs by Annexin-V-FITC/PI analysis (reference value: 0.27%). The format is functional.
In series [13] the test system is Huh-7. The series is described as follows: In vivo antitumor activity against human Huh-7 cells subcutaneously injected into BALB/C nude mouse assessed as tumor growth inhibition at 10 mg/kg, ip administered once daily measured after 14 days. It counts as functional. Conditions: Huh-7, 336 h, time 14 day, read-out: TGI.
Series [14] relates to Huh-7. Briefly: Induction of cell cycle arrest in human Huh-7 cells assessed as accumulation of cells at G2 phase 80 nM measured after 24 hrs by flow cytometric assay (reference value: 13.66%). It counts as functional.
For series [15], the system named is SK-HEP1. The series is described as follows: Induction of apoptosis in human SK-HEP1 cells assessed as ROS generation by measuring DCFH2-DA stained cells at 80 nM measured after 24 hrs […] (reference value: 0.14%). The format is functional.
Series [16] concerns Huh-7. The series is described as follows: Induction of apoptosis in human Huh-7 cells assessed as early apoptotic cells at 80 nM measured after 24 hrs by Annexin-V-FITC/PI analysis (reference value: 1.04%). It counts as functional.
The subject of series [17] is Huh-7. The series is described as follows: Antiproliferative activity against human Huh-7 cells assessed as inhibition of cell proliferation incubated for 72 hrs by MTT assay. The format is functional, cell-based. Conditions: Huh-7, 72 h.
Series [18] deals with Huh-7. Briefly: Induction of cell cycle arrest in human Huh-7 cells assessed as accumulation of cells at S phase 80 nM measured after 24 hrs by flow cytometric assay (reference value: 23.33%). The format is functional.
Series [19] concerns SK-HEP1. Briefly: Induction of apoptosis in human SK-HEP1 cells assessed as loss of mitochondrial membrane potential by measuring JC-1 stained cells at 80 nM measured after 24 hrs by JC-1 staining based flow cytometry (reference value: 0.49%). The format is functional.
The test system of series [20] is Huh-7. Briefly: Induction of apoptosis in human Huh-7 cells assessed as ROS generation by measuring DCFH2-DA stained cells at 80 nM measured after 24 hrs […] (reference value: 0.45%). The format is functional.
Series [21] can be described thus: Aqueous solubility of the compound […] measured after 72 hrs in shaking by HPLC analysis. The format is physicochemical.
Series [22] has as its system Huh-7. The series is described as follows: Induction of apoptosis in human Huh-7 cells assessed as loss of mitochondrial membrane potential by measuring JC-1 stained cells at 80 nM measured after 24 hrs by JC-1 staining based flow cytometry (reference value: 2.27%). It counts as functional.
The test system of series [23] is SK-HEP1. The series is described as follows: Induction of apoptosis in human SK-HEP1 cells assessed as late apoptotic cells at 80 nM measured after 24 hrs by Annexin-V-FITC/PI analysis (reference value: 0.64%). The format is functional.

The structures appear in SMILES notation. ≈ marks a conversion by molar mass, not a printed value.

The text below walks through data of ChEMBL document CHEMBL6071160, “Identification of a novel 10-hydroxyevodiamine prodrug as a potent topoisomerase inhibitor with improved aqueous solubility for treatment of hepatocellular carcinoma” (Eur J Med Chem, 2024).

For orientation: IC50 means the concentration needed to halve the response being measured. Take `COc1cccc2c1C(=O)c1c(O)c3c(c(O)c1C2=O)C[C@@](O)(C(=O)CO)C[C@@H]3O[C@H]1C[C@H](N)[C@H](O)[C@H](C)O1` [DOXORUBICIN]: the IC50 in the series on SMMC-7721 was found to be 0.15 µM; in series [1] it was 1.35 µM. Besides, in [2], the Ratio is 9.
One may read the thermodynamic solubility as solubility found after equilibrating the solid with the medium. `CC(=O)Oc1ccc2[nH]c3c(c2c1)CCN1C(=O)c2cc(F)cc(F)c2N(c2cccc(F)c2)C31` (centres undefined): the Activity is listed as 64.96% with SK-HEP1 [3]; 0.85% in the series with SK-HEP1 [4]; 10.32% with Huh-7 [5]; 21.32% with SK-HEP1 [7]; 18.15% in the series with Huh-7 [8]; 11.73% in the series with SK-HEP1 [9]. Further, the Activity was found to be 23.31% in the series on SK-HEP1 [11]; 0.83% with Huh-7 [12]; 70.08% in the series with Huh-7 [14]; 57.06% in the series with SK-HEP1 [15]; 6.38% in the series on Huh-7 [16]; 11.77% with Huh-7 [18]. In addition, the Activity with SK-HEP1 [19] is 12.96%; in the series with Huh-7 [20], 17.42%; in the series with Huh-7 [22] it was 12.03%; in the series on SK-HEP1 [23], 9.72%. Further, the viability at 0.08 µM in the series with Huh-7 [6] is 82.5%; in the series on SK-HEP1 [10], 68.1%. In addition, the inhibition in vivo at 10 mg/kg in the series on Huh-7 [13] was 40%. For the same compound, the IC50 in the series on Huh-7 [17] was found to be 0.04 µM. Moreover, in [21], the solubility (thermodynamic) at 72 h came to 2.4 µg/mL (≈ 5.03 µM).
Turning to `O=C1c2cc(F)cc(F)c2N(c2cccc(F)c2)C2c3[nH]c4ccc(O)cc4c3CCN12` (centres undefined), the Activity was determined as 66.31% with SK-HEP1 [3]; 1.19% with SK-HEP1 [4]; 10.46% with Huh-7 [5]; 22.1% in the series with SK-HEP1 [7]; 5.79% in the series on Huh-7 [8]; 8.18% in the series with SK-HEP1 [9]. In addition, the Activity in the series on SK-HEP1 [11] came to 25.51%; in the series on Huh-7 [12], 1.63%; with Huh-7 [14] it was 86.71%; with SK-HEP1 [15], 61.44%; in the series with Huh-7 [16] it was 6.84%; in the series with Huh-7 [18], 7.51%. For the same compound, the Activity in the series with SK-HEP1 [19] amounted to 10.75%; with Huh-7 [20], 31.15%; with Huh-7 [22] it was 10.62%; in the series with SK-HEP1 [23] it was 10.49%. Also, the values for the viability at 0.08 µM with Huh-7 [6] and in the series on SK-HEP1 [10] were 81.1% and 66.2%, respectively. Besides, the IC50 with Huh-7 [17] stood at 0.05 µM. For the same compound, the thermodynamic solubility at 72 h in series [21] worked out at 1 µg/mL (≈ 2.3 µM).
